Measured values from patent publication US20250276994A1, “CAP ANALOG FOR THE 5'-END OF EUKARYOTIC MESSENGER RNAS” (WESTFÄLISCHE WILHELMS-UNIVERSITÄT, priority 2021, published 2025).

Columns and labels:
Reticulocyte Lysate = assay: In vitro translation of capped FLuc-mRNA and luminescence measurement; format: biochemical; conditions: capped FLuc-mRNA
Method: In vitro translation was performed using a eukaryotic cell free protein expression kit from Reticulocyte Lysate (Invitrogen). Experiments were performed in 12.5 μL total volume containing 20 ng of the corresponding FLuc-mRNAs, 50 μM L-methionine and 150 mM potassium acetate. Samples were mixed with 8.5 μL of the reticulocyte lysate and incubated for 90 min at 30° C. Afterwards, 2 μL of the respective translation mix were used in subsequent luminescence measurement. The translation efficiency of the reporter mRNAs was assessed in a luciferase assay using Beetle-juice Luciferase Assay Firefly (pjk). Luciferase activity was determined by adding 50 μL freshly prepared substrate solution to the translation mixture. Luminescence was monitored using a Tecan Infinite® m1000pro microplate reader with an acquisition time of 3 s (duration of signal acquisition).
The photocleavable 5′-cap analog of formula (7) was used for in vitro transcription to make FLuc mRNA as described above. This was used for in vitro translation and Luminescence measurement as described above. The commercial non-modified cap analog denoted “m^7GpppG” (Jena Bioscience) was used as positive control. Samples were irradiated for 30 seconds. The ApppG capped mRNA, which is not recognized by the translation initiation factor served as negative control, which is substracted from the other samples as it represents background activity. The experiment was performed in quadruplicates. The FLuc-mRNA capped with the photocleavable 5′-cap analog of formula (7) is denoted “ONB”.
The in vitro translation assay and luminescence measurement was performed as described above using the photocleavable 5′-cap analog of formula (12). The capped mRNA was denoted “DMNB-m^7GpCH2ppG capped FLuc-mRNA”. Samples were irradiated for 30 seconds (365 nm) or 60 seconds (405 nm). The commercial non-modified cap analog denoted “m^7GpppG” (Jena Bioscience) was used as positive control and all other samples were normalized to it. The ApppG capped mRNA, which is not recognized by the translation initiation factor served as negative control, which is substracted from the other samples as it represents background activity. The experiment was performed in triplicates, except *DMNB-m7GpCH2ppG (365 nm) which was a single determination.
The in vitro translation assay in reticulocyte lysate and luminescence measurement was performed as described above using m^7GpppG capped FLuc-mRNA caged with the photocleavable 5′-cap analog of formulas (22) and (25) (denoted “DMNB m^7GpppG” and “NPOM m^7GpppG”). Samples were irradiated for 30 seconds at 365 nm. The ApppG capped mRNA, which is not recognized by the translation initiation factor served as negative control, which was substracted from the other samples as it represents background activity. The values were normalized to the non-irradiated sample with m^7GpppG capped mRNA (100%). The experiment was performed in triplicates.
The in vitro translation assay in reticulocyte lysate and luminescence measurement was performed as described above using m^7GpppG capped FLuc-mRNA with modified nucleotides m^5C and N^1methyl-pseudouridine caged with the photocleavable 5′-cap analog of formulas (22) and (25) (denoted “DMNB m^7GpppG mod” and “NPOM m^7GpppG mod”). Samples were irradiated for 30 seconds at 365 nm. The ApppG capped mRNA, which is not recognized by the translation initiation factor served as negative control, which was substracted from the other samples as it represents background activity. The values were normalized to the non-irradiated sample with m^7GpppG capped mRNA (100%). The experiment was performed in triplicates.

[1] = Irradiation of photocleavable 5′-cap analogs, LC-MS (triple quad); format: physicochemical; conditions: 30 seconds, 365 nm (3 W)
Method: For determination of mass spectra, HPLC—triple-quadrupole mass spectrometry system was used. The system consists of Agilent 1260 Infinity II with dual λ absorbance detector (G7114A) HPLC part and Agilent Ultivo mass spectrometer with JetStream ion source (type of ESI). Column which was used: Agilent Poroshell 120 EC-C18 (3.0×150/2.7 μm). The polar compounds were tested by LC method (eluent 20 mM NH40Ac buffer (pH=6)/CH3CN, gradient 0-30%, column temperature=20° C.).
Samples of the photocleavable 5′-cap analog of formula (22) were irradiated for 30 seconds with 365 nm (3 W).

HeLa cells = assay: Cell viability after irradiation, MTT test; format: cell-based; conditions: 365 nm 30 seconds or 405 nm 60 seconds; normalized to non-irradiated m7GG; single determination
Method: 3×10^4 cells in HeLa cell media (100 μL) were transferred in one well of a 96 well-plate. After 24 h the cells were transfected with Metafectene® Pro (0.3 μL) in MEM Earle's media (4.7 μL) and modified mRNA (0.1 μg) in MEM Earle's media (5 μL) for 6 h at 37° C. in a total volume of 100 μL. For subsequent toxicity assays, the media containing the transfection reagent was removed and cells were incubated overnight in fresh serum-free HeLa cell media. Cellular lethality was checked using the LDH Cytotoxicity Detection Kit, cellular viability was checked using the Vybrant® MTT Cell Proliferation Assay Kit (A volume of 100 μL 0.04 M HCl in 2-propanol was used instead of SDS-HCl solution to dissolve the formazan.) and cellular proliferation was checked using the BrdU Cell Proliferation Assay Kit. In each case, 24 h after transfection, absorbance was measured photometrically using the Tecan Infinite® M1000 Pro according to the manufacturer's instructions.
To evaluate the cell viability after irradiation, a MTT test was used as described above. HeLa cells were irradiated (5 V, 600 mA) with either 365 nm (m7GG 365, DMNB 365) or 405 nm (m7GG 405, DMNB 405) for 30 seconds (365 nm) or 60 seconds (405 nm). The values were normalized to the non-irradiated sample (m7GG).

SMILES: COc1cc(COC(=O)Nc2nc3c(c(=O)[nH]2)[n+](C)cn3[C@@H]2O[C@H](COP(=O)(O)CP(=O)(O)OP(=O)(O)OC[C@H]3O[C@@H](n4cnc5c(=O)[nH]c(N)nc54)C(O)C3O)C(O)C2O)c([N+](=O)[O-])cc1OC (stereo partly shown) [compound 12, P1-(N^2-(4,5-Dimethoxy-2-nitrobenzyl)oxycarbonyl-7-methylguanosin-5′-yl)-P3-guanosin-5′-yl 1,2-methylenetriphosphate]
- in vitro translation (luminescence) after irradiation (Reticulocyte Lysate; 30 seconds (365 nm) or 60 seconds (405 nm)): partially restored
- in vitro translation (luminescence), non-irradiated (Reticulocyte Lysate; non-irradiated, normalized to m^7GpppG capped mRNA): successfully inhibited to a high degree
- uncaging of the cap after irradiation (LC-MS) [1]: partially uncaged
- cell viability (MTT) (HeLa cells): only slightly decreased
